These results are taken from patent US11377425B1, “Small molecule modulators of IL-17” (LEO Pharma A/S, priority 2018, dated 2022).

Some results are limits rather than exact numbers.

In the experiment the target is T1, human IL-17AA (Homo sapiens, UniProt Q16552).
T1 construct: host or cells: HEK (human embryonic kidney) cells
T1 sequence (Q16552 24-155): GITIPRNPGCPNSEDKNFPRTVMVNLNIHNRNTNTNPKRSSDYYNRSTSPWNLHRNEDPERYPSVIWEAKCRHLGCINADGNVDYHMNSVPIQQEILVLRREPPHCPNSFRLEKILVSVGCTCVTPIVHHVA
Nature of the experiment: IL-8 release assay in human epithelial keratinocytes adult (HEKa). It is filed as cell-based. The following applies: HEKa cells, 3 ng/mL HEK-human IL-17AA + 10 ng/mL human TNFalpha; read-out: Rel EC50 IL-8 release assay. Summed up:
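IL-8 release, quantified by HTRF and normalized to controls, reports IL-17 signaling in HEKa cells treated with compound plus final 3 ng/mL IL-17AA (HEK-derived) and 10 ng/mL TNF-alpha for 68-72 h; TNF-alpha-only wells set 100% inhibition. Four-parameter logistic fits (r^2>0.9) give relative IC50 and Emax; PrestoBlue flags cytotoxicity.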
As usually defined, the EC50 is the concentration needed to bring the measured effect to its halfway point. For the compound `CC(C)c1nc[nH]c1-c1ccc(NC(=O)[C@@H](NC(=O)c2ccnn2C(C)C)C(C2CC2)C2CC2)cc1` [Example 380, N-[(1S)-1-(dicyclopropylmethyl)-2-[4-(4-isopropyl-1H-imidazol-5-yl)anilino]-2-oxo-ethyl]-2-isopropyl-pyrazole-3-carboxamide], the EC50 is 100 to 1000 nM. Take `CC(C)n1nccc1C(=O)N[C@H](C(=O)Nc1ccc(-c2[nH]cnc2C2CC2)cc1)C(C1CC1)C1CC1` [Example 381, N-[(1S)-2,2-dicyclopropyl-1-[[4-(4-cyclopropyl-1H-imidazol-5-yl)phenyl]carbamoyl]ethyl]-2-isopropyl-pyrazole-3-carboxamide]: the EC50 lay in the range of 100 to 1000 nM. The same measure for `Cc1cn[nH]c1-c1ccc(NC(=O)[C@@H](NC(=O)c2ccnn2C(C)C)C(C2CC2)C2CC2)cc1` [Example 382, N-[(1S)-1-(dicyclopropylmethyl)-2-[4-(4-methyl-1H-pyrazol-5-yl)anilino]-2-oxo-ethyl]-2-isopropyl-pyrazole-3-carboxamide]: 100 to 1000 nM; for `Cc1[nH]nc(C2CC2)c1-c1ccc(NC(=O)[C@@H](NC(=O)c2ccnn2C(C)C)C(C2CC2)C2CC2)cc1` [Example 383, N-[(1S)-2,2-dicyclopropyl-1-[[4-(3-cyclopropyl-5-methyl-1H-pyrazol-4-yl)phenyl]carbamoyl]ethyl]-2-isopropyl-pyrazole-3-carboxamide]: under 100 nM. The same measure for `Cc1[nH]nc(C(C)C)c1-c1ccc(NC(=O)[C@@H](NC(=O)c2ccnn2C(C)C)C(C2CC2)C2CC2)cc1` [Example 386, N-[(1S)-1-(dicyclopropylmethyl)-2-[4-(3-isopropyl-5-methyl-1H-pyrazol-4-yl)anilino]-2-oxo-ethyl]-2-isopropyl-pyrazole-3-carboxamide]: under 100 nM. Regarding `CC(C)c1n[nH]c(C(C)C)c1-c1ccc(NC(=O)[C@@H](NC(=O)c2ccnn2C(C)C)C(C2CC2)C2CC2)cc1` [Example 387, N-[(1S)-1-(dicyclopropylmethyl)-2-[4-(3,5-diisopropyl-1H-pyrazol-4-yl)anilino]-2-oxo-ethyl]-2-isopropyl-pyrazole-3-carboxamide], the half-maximal effective concentration (EC50) was under 100 nM. For `Cc1n[nH]c(C)c1-c1ccc(NC(=O)[C@@H](NC(=O)c2ccnn2CC(C)O)C(C2CC2)C2CC2)cc1` (stereo partly drawn) [Example 388, N-[(1S)-1-(dicyclopropylmethyl)-2-[4-(3,5-dimethyl-1H-pyrazol-4-yl)anilino]-2-oxo-ethyl]-2-(2-hydroxypropyl)pyrazole-3-carboxamide], the EC50 fell in the range of 100 to 1000 nM. The same measure for `Cc1[nH]nc(C2CC2)c1-c1ccc(NC(=O)[C@@H](NC(=O)c2ccnn2[C@@H](C)CO)C(C2CC2)C2CC2)cc1` [Example 389, N-[(1S)-2,2-dicyclopropyl-1-[[4-(3-cyclopropyl-5-methyl-1H-pyrazol-4-yl)phenyl]carbamoyl]ethyl]-2-[(1S)-2-hydroxy-1-methyl-ethyl]pyrazole-3-carboxamide]: under 100 nM; for `Cc1[nH]nc(C2CC2)c1-c1ccc(NC(=O)[C@@H](NC(=O)c2ccnn2[C@H](C)CO)C(C2CC2)C2CC2)cc1` [Example 390, N-[(1S)-2,2-dicyclopropyl-1-[[4-(3-cyclopropyl-5-methyl-1H-pyrazol-4-yl)phenyl]carbamoyl]ethyl]-2-[(1R)-2-hydroxy-1-methyl-ethyl]pyrazole-3-carboxamide]: under 100 nM. For `CCCn1nccc1C(=O)N[C@H](C(=O)Nc1ccc(-c2c(C3CC3)n[nH]c2C)cc1)C(C1CC1)C1CC1` [Example 391, N-[(1S)-2,2-dicyclopropyl-1-[[4-(3-cyclopropyl-5-methyl-1H-pyrazol-4-yl)phenyl]carbamoyl]ethyl]-2-propyl-pyrazole-3-carboxamide], the EC50 was under 100 nM.

Take `CCn1nccc1C(=O)N[C@H](C(=O)Nc1ccc(-c2c(C3CC3)n[nH]c2C)cc1)C(C1CC1)C1CC1` [Example 392, N-[(1S)-2,2-dicyclopropyl-1-[[4-(3-cyclopropyl-5-methyl-1H-pyrazol-4-yl)phenyl]carbamoyl]ethyl]-2-ethyl-pyrazole-3-carboxamide]: the EC50 is under 100 nM.

Take `CCc1n[nH]c(CC)c1-c1ccc(NC(=O)[C@@H](NC(=O)c2ccnn2CCCO)C(C2CC2)C2CC2)cc1` [Example 393, N-[(1S)-1-(dicyclopropylmethyl)-2-[4-(3,5-diethyl-1H-pyrazol-4-yl)anilino]-2-oxo-ethyl]-2-(3-hydroxypropyl)pyrazole-3-carboxamide]: the 50% effective concentration (EC50) was under 100 nM. The figure for `CCc1n[nH]c(CC)c1-c1ccc(NC(=O)[C@@H](NC(=O)c2ccnn2[C@@H](C)CO)C(C2CC2)C2CC2)cc1` [Example 394, N-[(1S)-1-(dicyclopropylmethyl)-2-[4-(3,5-diethyl-1H-pyrazol-4-yl)anilino]-2-oxo-ethyl]-2-[(1S)-2-hydroxy-1-methyl-ethyl]pyrazole-3-carboxamide] is under 100 nM; for `CCc1n[nH]c(CC)c1-c1ccc(NC(=O)[C@@H](NC(=O)c2ccnn2[C@H](C)CO)C(C2CC2)C2CC2)cc1` [Example 395, N-[(1S)-1-(dicyclopropylmethyl)-2-[4-(3,5-diethyl-1H-pyrazol-4-yl)anilino]-2-oxo-ethyl]-2-[(1R)-2-hydroxy-1-methyl-ethyl]pyrazole-3-carboxamide] it is under 100 nM. The same measure for `CCc1n[nH]c(CC)c1-c1ccc(NC(=O)[C@@H](NC(=O)c2ccnn2CC)C(C2CC2)C2CC2)cc1` [Example 396, N-[(1S)-1-(dicyclopropylmethyl)-2-[4-(3,5-diethyl-1H-pyrazol-4-yl)anilino]-2-oxo-ethyl]-2-ethyl-pyrazole-3-carboxamide]: under 100 nM; for `CCCn1nccc1C(=O)N[C@H](C(=O)Nc1ccc(-c2c(CC)n[nH]c2CC)cc1)C(C1CC1)C1CC1` [Example 397, N-[(1S)-1-(dicyclopropylmethyl)-2-[4-(3,5-diethyl-1H-pyrazol-4-yl)anilino]-2-oxo-ethyl]-2-propyl-pyrazole-3-carboxamide]: under 100 nM.

On to `CCc1n[nH]c(CC)c1-c1ccc(NC(=O)[C@@H](NC(=O)c2ccnn2C)C(C2CC2)C2CC2)cc1` [Example 398, N-[(1S)-1-(dicyclopropylmethyl)-2-[4-(3,5-diethyl-1H-pyrazol-4-yl)anilino]-2-oxo-ethyl]-2-methyl-pyrazole-3-carboxamide], for which the EC50 was under 100 nM. The figure for `CCc1n[nH]c(CC)c1-c1ccc(NC(=O)[C@@H](NC(=O)c2ccnn2C(C)C)C(C2CC2)C2CC2)cc1` [Example 399, N-[(1S)-1-(dicyclopropylmethyl)-2-[4-(3,5-diethyl-1H-pyrazol-4-yl)anilino]-2-oxo-ethyl]-2-isopropyl-pyrazole-3-carboxamide] is under 100 nM. On to `Cc1[nH]ncc1-c1ccc(NC(=O)[C@@H](NC(=O)c2ccnn2C)C(c2ccccc2)c2ccccc2)cc1` [Example 400, N-[(1S)-1-Benzhydryl-2-[4-(3-methyl-1H-pyrazol-4-yl)anilino]-2-oxo-ethyl]-2-methyl-pyrazole-3-carboxamide], for which the EC50 was 100 to 1000 nM. The same measure for `CC(C)c1ncn(C)c1-c1ccc(NC(=O)[C@@H](NC(=O)c2ccnn2C(C)C)C(C2CC2)C2CC2)cc1` [Example 401, N-[(1S)-1-(dicyclopropylmethyl)-2-[4-(5-isopropyl-3-methyl-imidazol-4-yl)anilino]-2-oxo-ethyl]-2-isopropyl-pyrazole-3-carboxamide]: 100 to 1000 nM.
